According to ChEMBL document CHEMBL1201862, “PubChem BioAssay data set” (2004):
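Exposure lasted 48 hours, with cells grown in 96-well plates and compounds tested at five concentrations. Abbreviation: GI50, concentration required for 50% inhibition of growth.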 The source made the active and inactive calls. Rule as the data show it: active = GI50 up to about 1.1 µM and inactive = higher.

What was measured:
Experiment in all cases: inhibition of tumour cell growth, NCI panel, 48 h
A498 = test system: A498
SF-295 = test system: SF-295
HCC 2998 = test system: HCC 2998
EKVX = test system: EKVX
MOLT-4 = test system: MOLT-4
SN12C = test system: SN12C
OVCAR-3 = test system: OVCAR-3
HL-60 = test system: HL-60
ACHN = test system: ACHN
HOP-62 = test system: HOP-62
HOP-92 = test system: HOP-92
SNB-75 = test system: SNB-75
OVCAR-5 = test system: OVCAR-5
UO-31 = test system: UO-31
NCI-H522 = test system: NCI-H522

Row | Structure (SMILES) | GI50 (A498) | GI50 (SF-295) | GI50 (HCC 2998) | GI50 (EKVX) | GI50 (MOLT-4) | GI50 (SN12C) | GI50 (OVCAR-3) | GI50 (HL-60) | GI50 (ACHN) | GI50 (HOP-62) | GI50 (HOP-92) | GI50 (SNB-75) | GI50 (OVCAR-5) | GI50 (UO-31) | GI50 (NCI-H522)
1 | Oc1ccc2occ3c2c1CCC3 | > 100 µM (inactive) | > 100 µM (inactive) | > 100 µM (inactive) | 72.6 µM (inactive) | > 100 µM (inactive) | > 100 µM (inactive) | 64.1 µM (inactive) | 44.4 µM (inactive) | > 100 µM (inactive) | > 100 µM (inactive) | 29.2 µM (inactive) | > 100 µM (inactive) | – | – | –
2 | COc1ccc(/C(=C/n2ccnc2)C(=O)c2ccc(OC)c(OC)c2)cc1 | > 100 µM (inactive) | – | > 100 µM (inactive) | > 100 µM (inactive) | > 100 µM (inactive) | > 100 µM (inactive) | > 100 µM (inactive) | > 100 µM (inactive) | > 100 µM (inactive) | > 100 µM (inactive) | > 100 µM (inactive) | > 100 µM (inactive) | > 100 µM (inactive) | > 100 µM (inactive) | > 100 µM (inactive)
3 | Cc1ccc(N2C(=O)C3C=CC(n4[nH]c(=O)n(Cc5ccccc5)c4=O)CC3C2=O)cc1 (stereo not given) | > 100 µM (inactive) | > 100 µM (inactive) | > 100 µM (inactive) | > 100 µM (inactive) | > 100 µM (inactive) | > 100 µM (inactive) | > 100 µM (inactive) | > 100 µM (inactive) | > 100 µM (inactive) | > 100 µM (inactive) | > 100 µM (inactive) | 74.6 µM (inactive) | > 100 µM (inactive) | > 100 µM (inactive) | > 100 µM (inactive)
4 | C=CCN1/C(=C2\SC(=S)N(c3ccc(C)cc3)C2=O)Sc2c1ncn(C)c2=O | 51.1 µM (inactive) | 90.8 µM (inactive) | 47.6 µM (inactive) | 69 µM (inactive) | > 100 µM (inactive) | > 100 µM (inactive) | – | 83.4 µM (inactive) | > 100 µM (inactive) | 69.2 µM (inactive) | > 100 µM (inactive) | 40.7 µM (inactive) | > 100 µM (inactive) | > 100 µM (inactive) | 46.7 µM (inactive)
5 | COC(=O)C(C(=O)C(=O)Nc1ccccc1C(C)=O)c1nc2ccc(Cl)cc2nc1O (stereo not given) | > 100 µM (inactive) | > 100 µM (inactive) | > 100 µM (inactive) | 56.9 µM (inactive) | > 100 µM (inactive) | > 100 µM (inactive) | > 100 µM (inactive) | > 100 µM (inactive) | > 100 µM (inactive) | > 100 µM (inactive) | > 100 µM (inactive) | 99.5 µM (inactive) | > 100 µM (inactive) | 77.8 µM (inactive) | –
6 | O=C1C(c2ccccc2)=C(c2ccccc2)C(c2ccc(Sc3ccc(C4=C(c5ccccc5)C(=O)C(c5ccccc5)=C4c4ccccc4)cc3)cc2)=C1c1ccccc1 | > 100 µM (inactive) | > 100 µM (inactive) | – | > 100 µM (inactive) | > 100 µM (inactive) | > 100 µM (inactive) | > 100 µM (inactive) | > 100 µM (inactive) | – | 60.7 µM (inactive) | > 100 µM (inactive) | 31.3 µM (inactive) | > 100 µM (inactive) | > 100 µM (inactive) | > 100 µM (inactive)
7 | O=c1[nH]c2ccccc2cc1C(Cl)=C(Cl)Cl | > 100 µM (inactive) | > 100 µM (inactive) | > 100 µM (inactive) | 35.7 µM (inactive) | > 100 µM (inactive) | > 100 µM (inactive) | > 100 µM (inactive) | 53.7 µM (inactive) | > 100 µM (inactive) | > 100 µM (inactive) | > 100 µM (inactive) | 35.2 µM (inactive) | > 100 µM (inactive) | > 100 µM (inactive) | > 100 µM (inactive)
8 | C(CCC[Te][Te]CCCCCCOC1CCCCO1)CCOC1CCCCO1 (stereo not given) | 17.6 µM (inactive) | 15.9 µM (inactive) | 14.1 µM (inactive) | – | 9.82 µM (inactive) | 13.7 µM (inactive) | – | 8.69 µM (inactive) | 10.6 µM (inactive) | 15.1 µM (inactive) | 12.2 µM (inactive) | 17.3 µM (inactive) | 14 µM (inactive) | 19.8 µM (inactive) | –
9 | CCOC(=O)C1=C(Nc2ccc(Cl)c(Cl)c2)OC/C1=N\NS(=O)(=O)c1ccc(C)cc1 | 44.4 µM (inactive) | > 100 µM (inactive) | 33.5 µM (inactive) | 58.1 µM (inactive) | 26.3 µM (inactive) | 57.8 µM (inactive) | 49.5 µM (inactive) | 27.9 µM (inactive) | – | 36.7 µM (inactive) | – | 35.8 µM (inactive) | > 100 µM (inactive) | 25.1 µM (inactive) | 29 µM (inactive)
10 | CC(=O)N(/N=C\c1ccc([N+](=O)[O-])cc1)c1ccccc1 | > 100 µM (inactive) | > 100 µM (inactive) | > 100 µM (inactive) | > 100 µM (inactive) | – | > 100 µM (inactive) | > 100 µM (inactive) | – | > 100 µM (inactive) | > 100 µM (inactive) | > 100 µM (inactive) | 48.3 µM (inactive) | > 100 µM (inactive) | 35.9 µM (inactive) | –
11 | CCN(CC)C(c1ccc(N(C)C)cc1)C(c1ccc(N(C)C)cc1)N(CC)CC (stereo not given) | > 72.9 µM (inactive) | 39.2 µM (inactive) | 40.4 µM (inactive) | > 72.9 µM (inactive) | 30.3 µM (inactive) | > 72.9 µM (inactive) | 21.5 µM (inactive) | 14.8 µM (inactive) | 47 µM (inactive) | 61.5 µM (inactive) | 13.2 µM (inactive) | 14.2 µM (inactive) | > 72.9 µM (inactive) | – | > 7.29 µM (inactive)
12 | Clc1ccc2c(Cl)ncnc2c1I | – | > 100 µM (inactive) | > 100 µM (inactive) | 10.4 µM (inactive) | 24.8 µM (inactive) | > 100 µM (inactive) | > 100 µM (inactive) | 20.1 µM (inactive) | > 10 µM (inactive) | > 100 µM (inactive) | – | 14.6 µM (inactive) | > 100 µM (inactive) | 67.8 µM (inactive) | 20.6 µM (inactive)
13 | Cc1ccc(C)c(NC(=O)C(=O)Nn2c(S)nc3ccccc3c2=O)c1 | > 100 µM (inactive) | > 100 µM (inactive) | > 100 µM (inactive) | 71.3 µM (inactive) | > 100 µM (inactive) | > 100 µM (inactive) | – | > 100 µM (inactive) | > 100 µM (inactive) | > 100 µM (inactive) | > 100 µM (inactive) | > 100 µM (inactive) | > 100 µM (inactive) | > 100 µM (inactive) | > 100 µM (inactive)
14 | N/C(=N\O)N/N=C/c1ccc(O)c(O)c1 | > 100 µM (inactive) | > 100 µM (inactive) | > 100 µM (inactive) | > 100 µM (inactive) | > 100 µM (inactive) | > 100 µM (inactive) | > 100 µM (inactive) | > 100 µM (inactive) | > 100 µM (inactive) | > 100 µM (inactive) | > 100 µM (inactive) | > 100 µM (inactive) | > 100 µM (inactive) | > 100 µM (inactive) | > 100 µM (inactive)
15 | O=C1c2cccc([N+](=O)[O-])c2C(=O)c2nccnc21 | 5.32 µM (inactive) | 1.82 µM (inactive) | 2.62 µM (inactive) | 1.81 µM (inactive) | 2.5 µM (inactive) | 1.66 µM (inactive) | 1.87 µM (inactive) | 2.15 µM (inactive) | 3.19 µM (inactive) | – | 7.1 µM (inactive) | 1.07 µM (active) | 3.81 µM (inactive) | 1.27 µM (inactive) | 1.36 µM (inactive)
16 | CCOc1ccccc1/N=N/c1c(-c2ccccc2)nn(C(=O)CC(=O)Nc2cccc(Cl)c2)c1-c1ccccc1 | – | 50.4 µM (inactive) | 26.2 µM (inactive) | 41.1 µM (inactive) | 51.6 µM (inactive) | 40.4 µM (inactive) | 24.7 µM (inactive) | 58.6 µM (inactive) | 18.7 µM (inactive) | 72.9 µM (inactive) | 50.7 µM (inactive) | 33.8 µM (inactive) | 50.8 µM (inactive) | 19.2 µM (inactive) | 40.5 µM (inactive)
17 | CCCCCCCCCCCCCCCC/C(C(=O)OC)=C(/O)C(=O)OCC | > 100 µM (inactive) | > 100 µM (inactive) | > 100 µM (inactive) | – | > 100 µM (inactive) | > 100 µM (inactive) | > 100 µM (inactive) | > 100 µM (inactive) | 70.5 µM (inactive) | > 100 µM (inactive) | 38.9 µM (inactive) | 55 µM (inactive) | > 100 µM (inactive) | 94 µM (inactive) | > 100 µM (inactive)
18 | O=C(O)c1ccc(C2C(=O)N[C@@H]3CCC[C@H]23)cc1 (stereo not given in full) | > 100 µM (inactive) | > 100 µM (inactive) | > 100 µM (inactive) | > 100 µM (inactive) | > 100 µM (inactive) | – | > 100 µM (inactive) | > 100 µM (inactive) | – | > 100 µM (inactive) | – | > 100 µM (inactive) | > 100 µM (inactive) | > 100 µM (inactive) | > 100 µM (inactive)
19 | CCN(CC)CCOc1ccc(CCc2cc(OC)c(OC)c(OC)c2)cc1 | 22 µM (inactive) | 18.4 µM (inactive) | – | 65.3 µM (inactive) | 21.9 µM (inactive) | > 100 µM (inactive) | 45.7 µM (inactive) | 18.9 µM (inactive) | 50.4 µM (inactive) | 22.6 µM (inactive) | 20.6 µM (inactive) | 31.3 µM (inactive) | 22.3 µM (inactive) | 28.2 µM (inactive) | 20 µM (inactive)
20 | CCCN(CCC)c1c([N+](=O)[O-])cc(S(N)(=O)=O)cc1[N+](=O)[O-] [ORYZALIN] | – | 16.7 µM (inactive) | 18.5 µM (inactive) | 21.3 µM (inactive) | 20.7 µM (inactive) | 17.4 µM (inactive) | 16.9 µM (inactive) | – | 17.9 µM (inactive) | 17.2 µM (inactive) | – | 18.3 µM (inactive) | 22.4 µM (inactive) | 18.6 µM (inactive) | 16.7 µM (inactive)
